{
  "source": "paper PMC8716817",
  "about": "(Frontiers in Pharmacology, 2021)",
  "key": {"[1]": {"target": "T1, NaV1.7 (Rattus norvegicus, UniProt O08562)", "T1 construct": "gene Scn9a", "T1 sequence (O08562 whole entry)": "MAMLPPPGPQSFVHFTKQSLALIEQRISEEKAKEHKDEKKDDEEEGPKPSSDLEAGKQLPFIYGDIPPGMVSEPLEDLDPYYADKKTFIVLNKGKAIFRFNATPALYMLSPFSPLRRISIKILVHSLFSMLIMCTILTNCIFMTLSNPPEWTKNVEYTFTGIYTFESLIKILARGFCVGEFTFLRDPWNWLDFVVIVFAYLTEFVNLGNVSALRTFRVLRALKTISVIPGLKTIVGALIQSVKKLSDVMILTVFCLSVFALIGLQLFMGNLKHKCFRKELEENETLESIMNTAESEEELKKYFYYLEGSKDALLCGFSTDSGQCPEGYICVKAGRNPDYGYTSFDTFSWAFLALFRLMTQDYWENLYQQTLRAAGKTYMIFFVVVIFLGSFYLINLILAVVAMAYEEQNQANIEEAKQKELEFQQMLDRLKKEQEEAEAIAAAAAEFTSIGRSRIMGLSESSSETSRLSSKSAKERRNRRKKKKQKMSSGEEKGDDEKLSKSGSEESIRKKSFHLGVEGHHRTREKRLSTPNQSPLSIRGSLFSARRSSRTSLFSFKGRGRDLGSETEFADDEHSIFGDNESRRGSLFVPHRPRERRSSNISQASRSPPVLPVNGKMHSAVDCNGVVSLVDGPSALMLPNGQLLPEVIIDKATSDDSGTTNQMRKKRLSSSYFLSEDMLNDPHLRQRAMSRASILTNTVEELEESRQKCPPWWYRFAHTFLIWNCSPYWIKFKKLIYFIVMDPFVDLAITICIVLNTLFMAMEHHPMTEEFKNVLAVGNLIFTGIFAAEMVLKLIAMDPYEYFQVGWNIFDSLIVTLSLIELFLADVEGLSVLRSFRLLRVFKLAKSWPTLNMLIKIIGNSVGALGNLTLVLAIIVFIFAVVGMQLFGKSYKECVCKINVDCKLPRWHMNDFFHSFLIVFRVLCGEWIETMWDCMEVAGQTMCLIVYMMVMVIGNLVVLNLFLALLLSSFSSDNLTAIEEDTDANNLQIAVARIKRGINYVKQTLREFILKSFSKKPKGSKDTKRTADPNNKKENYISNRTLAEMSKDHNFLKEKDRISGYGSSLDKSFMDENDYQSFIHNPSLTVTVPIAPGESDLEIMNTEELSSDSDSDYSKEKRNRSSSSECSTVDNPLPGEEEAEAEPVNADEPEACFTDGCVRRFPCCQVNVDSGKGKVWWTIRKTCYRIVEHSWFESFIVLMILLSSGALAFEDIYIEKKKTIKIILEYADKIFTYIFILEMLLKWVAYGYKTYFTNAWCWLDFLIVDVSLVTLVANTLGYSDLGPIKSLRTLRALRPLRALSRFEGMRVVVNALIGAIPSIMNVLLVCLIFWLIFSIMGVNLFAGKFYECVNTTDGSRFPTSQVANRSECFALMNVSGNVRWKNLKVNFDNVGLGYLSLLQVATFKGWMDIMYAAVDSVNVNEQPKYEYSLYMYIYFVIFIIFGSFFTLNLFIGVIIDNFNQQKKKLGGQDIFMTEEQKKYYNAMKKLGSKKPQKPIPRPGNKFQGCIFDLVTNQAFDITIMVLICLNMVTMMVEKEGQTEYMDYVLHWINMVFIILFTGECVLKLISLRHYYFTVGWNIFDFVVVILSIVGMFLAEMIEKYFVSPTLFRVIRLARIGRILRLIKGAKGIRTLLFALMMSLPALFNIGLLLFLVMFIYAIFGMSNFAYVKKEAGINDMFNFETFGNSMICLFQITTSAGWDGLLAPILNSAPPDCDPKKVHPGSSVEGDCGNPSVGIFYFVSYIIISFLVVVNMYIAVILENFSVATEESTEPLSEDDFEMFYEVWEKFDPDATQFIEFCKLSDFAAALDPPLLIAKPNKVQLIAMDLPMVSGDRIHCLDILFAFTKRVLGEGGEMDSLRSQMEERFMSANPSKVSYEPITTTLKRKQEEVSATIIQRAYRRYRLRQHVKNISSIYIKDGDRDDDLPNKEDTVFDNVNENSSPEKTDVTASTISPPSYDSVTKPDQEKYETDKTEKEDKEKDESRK", "assay": "whole-cell patch clamp, stable NaV1.[…] HEK cells (vincristine pre-incubated)", "type": "cell-based"}, "[2]": {"target": "T2, NaV1.8 (Rattus norvegicus, UniProt Q62968)", "T2 construct": "gene Scn10a", "T2 sequence (Q62968 whole entry)": "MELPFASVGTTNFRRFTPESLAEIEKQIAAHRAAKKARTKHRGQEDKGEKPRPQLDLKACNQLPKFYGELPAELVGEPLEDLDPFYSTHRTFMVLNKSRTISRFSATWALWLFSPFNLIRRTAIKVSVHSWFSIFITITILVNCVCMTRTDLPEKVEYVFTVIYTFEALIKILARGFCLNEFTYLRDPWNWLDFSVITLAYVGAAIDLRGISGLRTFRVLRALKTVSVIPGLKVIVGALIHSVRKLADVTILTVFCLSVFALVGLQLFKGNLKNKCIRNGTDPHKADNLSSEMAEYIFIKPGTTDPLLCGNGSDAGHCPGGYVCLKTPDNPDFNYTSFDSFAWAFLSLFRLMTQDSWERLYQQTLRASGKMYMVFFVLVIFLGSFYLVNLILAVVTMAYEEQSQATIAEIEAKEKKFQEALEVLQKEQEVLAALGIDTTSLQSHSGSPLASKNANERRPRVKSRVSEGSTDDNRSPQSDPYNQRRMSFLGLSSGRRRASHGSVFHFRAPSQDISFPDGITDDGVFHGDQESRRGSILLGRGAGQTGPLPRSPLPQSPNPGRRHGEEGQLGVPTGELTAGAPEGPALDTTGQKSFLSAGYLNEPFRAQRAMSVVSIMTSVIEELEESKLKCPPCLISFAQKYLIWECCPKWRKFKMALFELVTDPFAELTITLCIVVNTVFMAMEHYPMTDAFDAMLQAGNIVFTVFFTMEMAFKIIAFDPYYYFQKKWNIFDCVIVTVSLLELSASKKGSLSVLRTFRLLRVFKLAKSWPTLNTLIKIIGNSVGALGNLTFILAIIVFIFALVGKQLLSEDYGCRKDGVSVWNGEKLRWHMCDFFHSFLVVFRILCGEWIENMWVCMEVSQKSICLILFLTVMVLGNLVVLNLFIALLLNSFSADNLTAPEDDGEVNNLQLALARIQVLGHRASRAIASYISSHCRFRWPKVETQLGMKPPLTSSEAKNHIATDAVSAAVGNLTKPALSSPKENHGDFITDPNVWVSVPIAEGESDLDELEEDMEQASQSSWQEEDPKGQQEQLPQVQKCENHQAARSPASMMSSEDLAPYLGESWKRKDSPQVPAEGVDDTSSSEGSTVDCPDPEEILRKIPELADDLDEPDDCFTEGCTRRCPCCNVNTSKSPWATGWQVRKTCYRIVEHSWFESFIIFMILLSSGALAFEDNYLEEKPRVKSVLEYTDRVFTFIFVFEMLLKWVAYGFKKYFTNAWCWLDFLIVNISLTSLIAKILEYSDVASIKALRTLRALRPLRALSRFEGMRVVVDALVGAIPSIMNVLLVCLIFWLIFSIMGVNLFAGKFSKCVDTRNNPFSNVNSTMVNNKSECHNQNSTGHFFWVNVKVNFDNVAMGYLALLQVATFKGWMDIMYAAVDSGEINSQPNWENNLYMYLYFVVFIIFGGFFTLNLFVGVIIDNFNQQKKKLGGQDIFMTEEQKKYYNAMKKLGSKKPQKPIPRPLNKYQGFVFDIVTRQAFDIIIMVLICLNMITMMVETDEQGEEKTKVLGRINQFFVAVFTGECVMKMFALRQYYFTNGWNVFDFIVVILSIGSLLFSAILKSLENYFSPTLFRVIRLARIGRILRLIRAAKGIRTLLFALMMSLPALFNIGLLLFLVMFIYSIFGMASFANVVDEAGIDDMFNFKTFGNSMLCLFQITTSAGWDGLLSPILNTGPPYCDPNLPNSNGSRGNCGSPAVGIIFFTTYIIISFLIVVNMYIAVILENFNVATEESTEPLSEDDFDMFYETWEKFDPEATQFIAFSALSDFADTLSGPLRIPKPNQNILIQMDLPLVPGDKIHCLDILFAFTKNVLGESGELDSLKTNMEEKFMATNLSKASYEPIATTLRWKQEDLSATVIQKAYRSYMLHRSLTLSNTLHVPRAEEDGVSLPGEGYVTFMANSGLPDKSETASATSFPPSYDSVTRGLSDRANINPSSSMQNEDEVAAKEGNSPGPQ", "type": "cell-based"}},
  "data": [
    {"smiles": "OCc1ccc(O[C@@H]2O[C@H](CO)[C@@H](O)[C@H](O)[C@H]2O)cc1", "note": "[GAS, Gastrodin]", "values": [
      {"measurement": "IC50", "setting": "[1]", "value": "25.9 ± 0.98", "unit": "µM"},
      {"measurement": "IC50", "setting": "[2]", "value": "67.5 ± 20.7", "unit": "µM"}
    ]}
  ]
}
